Measurements reported in patent US20260034051A1, “STABLE INJECTABLE CANNABIDIOL FORMULATIONS” (CARDIOL THERAPEUTICS INC., priority 2022, published 2026).

Experiment: Solubility of cannabidiol in alkyl esters of octanoic acid
Type: physicochemical
Conditions: in methyl octanoate and/or ethyl octanoate
Protocol: The cannabidiol can be present in an amount of from about 100 mg/mL. The cannabidiol can also be present in an amount up to about 150 mg/mL, 200 mg/ml, 250 mg/mL, 300 mg/mL, or 350 mg/mL, with higher concentrations of cannabidiol being preferred to reduce injection volume and promote ease of administration while reducing patient discomfort. The identity of ingredients and their amounts in the solvent system will determine the actual amount of cannabidiol that can be fully dissolved. […] Therefore, the higher the amount of alkyl ester of fatty acid that is present, the higher the amount of cannabidiol that can be dissolved.

With C=C(C)[C@@H]1CCC(C)=C[C@H]1c1c(O)cc(CCCCC)cc1O [cannabidiol, Cannabidiol] the “amount of cannabidiol that can be dissolved” value was “at least 750 mg/mL”.
